This is an account of results in patent publication US20230285441A1, “TREATMENT OF C[…] AURANOFIN” (GEORGIA STATE UNIVERSITY RESEARCH FOUNDATION, INC., priority 2020, published 2023).

The subject of one series is Huh7 cells. As to conditions: 0.1-10 µM for 48 hours, trypan blue.
Series [1] relates to IL-6, IL-1β, TNFα and NF-kB. Nature of the series: mRNA expression of SARS-CoV-2-induced cytokines in Huh7 cells by qRT-PCR. Format: cell-based, human.
For series [2], the system named is SARS-CoV-2 (USA-WA1/2020). Nature of the series: SARS-CoV-2 infectivity titers in cell culture supernatants by plaque assay. Conditions: 4 µM auranofin, Huh7 cells, 48 hours after infection. Format: cell-based.
Where [3] appears, read: 4 µM auranofin, SARS-CoV-2 infected Huh7 cells.

`CC[P](CC)(CC)=[Au][S][C@@H]1OC(COC(C)=O)[C@@H](OC(C)=O)C(OC(C)=O)C1OC(C)=O` (stereo partly drawn) [auranofin, 1-Thio-β-D-glucopyranosatotriethylphosphine gold-2,3,4,6-tetraacetate]: in the series on Huh7 cells, the “cytotoxic concentration of 50%” value is given as “approximately 5.7 µM”. For the same molecule, the “increase in TNF-α levels (mRNA)” value in series [1] was “absent”. In series [1] (setting [3]), the “increase in the expression of IL-1β (mRNA)” value was “no increase” and the “increase in the expression of NF-kB (mRNA)” value is “no increase”. In series [2], the “SARS-COV-2 infectivity titers in cell culture supernatants” value is given as “significantly reduced”.
